Structures are written as SMILES.

In one data set the test system is SW620/AD300. The experiment in a line: Cytotoxicity against human SW620/AD300 cells assessed as reduction in cell viability at 20 uM incubated for 72 hrs by CCK-8 assay relative to control. The class given is functional. A general note: Formazan colour is commonly taken as a measure of viable cells.
The nature of data set [1]: Reversal fold, ratio of PTX IC50 to PTX IC50 in presence of test compound for reversal of multi-drug resistance in human SW620/AD300 cells incubated for 72 hrs by CCK-8 assay (reference value: 1.0). The class given is functional.
The target of data set [2] is T1, ATP-dependent translocase ABCB1 (Homo sapiens, UniProt P08183). Description: Inhibition of ABCB1 in human SW620/AD300 cells assessed as accumulation of Rhodamine-123 by measuring fluorescence intensity incubated for 24 hrs by flow cytometric analysis. The class given is cell-based. To be noted: sw620/ad300, 24 h, at 5 to 20 µM, dose 5-20 µM.
T1 sequence (P08183 whole entry): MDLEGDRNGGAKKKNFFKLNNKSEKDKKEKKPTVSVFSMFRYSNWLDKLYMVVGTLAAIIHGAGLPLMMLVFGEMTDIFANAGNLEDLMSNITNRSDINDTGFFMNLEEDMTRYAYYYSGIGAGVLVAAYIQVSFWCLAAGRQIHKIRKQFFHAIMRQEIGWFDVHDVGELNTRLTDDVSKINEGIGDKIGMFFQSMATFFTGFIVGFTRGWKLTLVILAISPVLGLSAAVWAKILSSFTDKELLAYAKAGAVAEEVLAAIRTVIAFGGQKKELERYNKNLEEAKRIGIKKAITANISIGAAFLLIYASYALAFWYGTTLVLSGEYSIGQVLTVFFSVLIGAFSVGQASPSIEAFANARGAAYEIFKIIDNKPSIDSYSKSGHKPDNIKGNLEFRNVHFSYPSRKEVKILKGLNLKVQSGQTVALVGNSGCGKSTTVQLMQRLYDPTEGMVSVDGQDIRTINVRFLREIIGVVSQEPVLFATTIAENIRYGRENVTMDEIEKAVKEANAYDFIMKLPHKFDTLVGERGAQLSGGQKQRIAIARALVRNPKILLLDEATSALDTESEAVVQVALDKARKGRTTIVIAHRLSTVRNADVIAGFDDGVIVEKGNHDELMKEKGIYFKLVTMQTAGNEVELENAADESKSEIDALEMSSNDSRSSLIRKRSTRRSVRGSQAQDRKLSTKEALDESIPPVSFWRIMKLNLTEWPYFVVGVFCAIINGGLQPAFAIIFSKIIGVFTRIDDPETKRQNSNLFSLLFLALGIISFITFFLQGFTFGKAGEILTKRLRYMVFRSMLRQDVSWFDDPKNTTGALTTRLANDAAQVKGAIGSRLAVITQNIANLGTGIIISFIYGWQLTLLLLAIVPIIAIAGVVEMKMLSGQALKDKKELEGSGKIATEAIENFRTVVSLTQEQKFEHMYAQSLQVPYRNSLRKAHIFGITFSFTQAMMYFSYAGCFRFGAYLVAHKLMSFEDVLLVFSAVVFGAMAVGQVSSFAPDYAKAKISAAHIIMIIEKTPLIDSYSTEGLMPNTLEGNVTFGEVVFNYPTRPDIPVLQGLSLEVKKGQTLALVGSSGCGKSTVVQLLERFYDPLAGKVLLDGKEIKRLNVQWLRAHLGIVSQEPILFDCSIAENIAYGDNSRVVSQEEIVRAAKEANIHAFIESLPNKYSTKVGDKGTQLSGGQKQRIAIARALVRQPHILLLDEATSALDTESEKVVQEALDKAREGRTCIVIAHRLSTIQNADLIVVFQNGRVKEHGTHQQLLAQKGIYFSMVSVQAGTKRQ
The target of data set [3] is T1, ATP-dependent translocase ABCB1. Description: Binding affinity to ABCB1 (unknown origin) in human SW620/AD300 cells assessed as thermal stabilization at 20 uM at 40 to 65 degreeC incubated for 30 mins by CETSA. The class given is cell-based. Particulars: sw620/ad300, 0.5 h; call rule not given here.
Data set [4] in a line: Toxicity in male BALB/c nude mouse xenografted with ABCB1 overexpressing human SW620/AD300 cells assessed as cell necrosis in liver at 50 mg/kg administered every 3 days and measured after 14 days by H and E staining based analysis. The class given is organism-based. Particulars: in vivo, 336 h, time 14 day.
A short description of data set [5]: Toxicity in male BALB/c nude mouse xenografted with ABCB1 overexpressing human SW620/AD300 cells assessed as cell necrosis in kidney at 50 mg/kg administered every 3 days and measured after 14 days by H and E staining based analysis. The class given is organism-based. To be noted: in vivo, 336 h, time 14 day. Background: In xenograft studies the graft and the host belong to different species.

A short description of data set [6]: Toxicity in male BALB/c nude mouse xenografted with ABCB1 overexpressing human SW620/AD300 cells assessed as cell necrosis in spleen at 50 mg/kg administered every 3 days and measured after 14 days by H and E staining based analysis. The class given is organism-based. To be noted: in vivo, 336 h, time 14 day.
Data set [7] in a line: Toxicity in male BALB/c nude mouse xenografted with ABCB1 overexpressing human SW620/AD300 cells assessed as cell necrosis in liver measured after 14 days in presence of paclitaxel by H and E staining based analysis. To be noted: 336 h, time 14 day.
Data set [8] can be described thus: Toxicity in male BALB/c nude mouse xenografted with ABCB1 overexpressing human SW620/AD300 cells assessed as cell necrosis in kidney measured after 14 days in presence of paclitaxel by H and E staining based analysis. Particulars: 336 h, time 14 day. The class given is tissue-based.
The nature of data set [9]: Toxicity in male BALB/c nude mouse xenografted with ABCB1 overexpressing human SW620/AD300 cells assessed as cell necrosis in spleen measured after 14 days in presence of paclitaxel by H and E staining based analysis. Particulars: 336 h, time 14 day.
Data set [10] in a line: Toxicity in male BALB/c nude mouse xenografted with ABCB1 overexpressing human SW620/AD300 cells assessed as body weight loss measured after 14 days in presence of paclitaxel. To be noted: 336 h, time 14 day.
Data set [11] in a line: Toxicity in male BALB/c nude mouse xenografted with ABCB1 overexpressing human SW620/AD300 cells assessed as body weight loss at 50 mg/kg administered every 3 days and measured after 14 days. The class given is organism-based. To be noted: in vivo, 336 h, time 14 day.

On to `COc1ccc(-c2nccc3c4ccccc4n(Cc4ccccc4C)c23)cc1`, for which the Activity with SW620/AD300 is less than 80%. As to `CCc1ccc(-c2nccc3c4ccccc4n(Cc4ccc(C)cc4)c23)cc1`, the Activity in the data set with SW620/AD300 was greater than 80%. For the same molecule, in [1], the “Ratio IC50” value came to 26.6. `CC(C)Cc1nccc2c3ccccc3n(CC(C)C)c12`: the Activity with SW620/AD300 was less than 80%. Take `Cc1cccc2c1[nH]c1c(CC(C)C)nccc12`: the Activity in the data set with SW620/AD300 is less than 80%. Take `COc1ccc(-c2nccc3c4ccccc4n(C)c23)cc1`: the “inhibition (INH)” value in [2] was “Dose-dependent-effect”. Further, the Activity result is listed as “Active” in [3]; “Non-toxic” in data set [4]; “Non-toxic” in data set [5]; “Non-toxic” in data set [6]; “Non-toxic” in [7]; “Non-toxic” in data set [8]. For the same molecule, the Activity entry in data set [9], in data set [10] and in data set [11] was “Non-toxic” in each case.

`CC(C)Cc1nccc2c1[nH]c1ccccc12`: in the data set on SW620/AD300, the Activity is greater than 80%. Besides, in data set [1], the “Ratio IC50” value was determined as 3.2. On the same counts, the results for `CCn1c2ccccc2c2ccnc(-c3ccc(C(F)(F)F)cc3)c21` are greater than 80% and 14.8. On the same counts, the results for `CCOC(=O)c1cc2c([nH]c3ccccc32)c(CC(C)C)n1` are greater than 80% and 47.4. On to `CCc1ccc(-c2nccc3c4ccccc4n(C)c23)cc1`, for which the Activity with SW620/AD300 is given as less than 80%.

On to `Cn1c2ccccc2c2ccnc(-c3ccc(C(F)(F)F)cc3)c21`, for which the Activity with SW620/AD300 is reported as greater than 80%. For the same molecule, the “Ratio IC50” value in data set [1] was 25.9. On the same counts, the results for `CCn1c2ccccc2c2ccnc(-c3ccc(OC)cc3)c21` are greater than 80% and 12.3. On the same counts, the results for `N#Cc1ccc(-c2nccc3c2[nH]c2ccccc23)cc1` are greater than 80% and 3.5. Take `CCC(CC)c1nccc2c3ccccc3n(C)c12`: in the data set with SW620/AD300, the Activity is recorded as less than 80%. Take `COc1ccc(-c2nccc3c2[nH]c2ccccc23)cc1`: the Activity in the data set on SW620/AD300 is on record as greater than 80%. In addition, in [1], the “Ratio IC50” value is on record as 37.8. The corresponding values for `Fc1ccc(-c2nccc3c2[nH]c2ccccc23)cc1` are greater than 80% and 5.3. The corresponding values for `FC(F)(F)c1ccc(-c2nccc3c2[nH]c2ccccc23)cc1` are greater than 80% and 3.2. Consider `COc1ccc2[nH]c3c(CC(C)C)nccc3c2c1`, for which, in the data set with SW620/AD300, the Activity is less than 80%. For the molecule `CCC(CC)c1nccc2c1[nH]c1ccccc12`, the Activity in the data set with SW620/AD300 is greater than 80%. Moreover, the “Ratio IC50” value in data set [1] is 31. The corresponding values for `Cc1nc(-c2ccc(-c3nccc4c3[nH]c3ccccc34)cc2)no1` are greater than 80% and 27.5. The corresponding values for `N#Cc1cccc(-c2nccc3c2[nH]c2ccccc23)c1` are greater than 80% and 2.2.

Consider `Cc1ccc(-c2nccc3c2[nH]c2ccccc23)cc1`, for which, in the data set with SW620/AD300, the Activity was less than 80%. Turning to `CC(C)Cc1nccc2c3ccccc3n(Cc3ccccc3)c12`, the Activity with SW620/AD300 is recorded as greater than 80%. Further, the “Ratio IC50” value in data set [1] is 113.6.

On to `COc1cc(OC)cc(-c2nccc3c2[nH]c2ccccc23)c1`, for which the Activity in the data set with SW620/AD300 was less than 80%. In the case of `C#CCn1c2ccccc2c2ccnc(CC(C)C)c21`, in the data set with SW620/AD300, the Activity is reported as greater than 80%. In addition, the “Ratio IC50” value in [1] is recorded as 15.9.

Regarding `CC(C)Cc1nc(C(=O)OCc2ccccc2)cc2c1[nH]c1ccccc12`, the Activity with SW620/AD300 is on record as greater than 80%. For the same molecule, the “Ratio IC50” value in [1] worked out at 4. Consider `CC(C)c1ccc(-c2nccc3c2[nH]c2ccccc23)cc1`, for which the Activity in the data set with SW620/AD300 was less than 80%. Turning to `CC(C)Cc1nccc2c3ccccc3n(C)c12`, the Activity with SW620/AD300 is less than 80%. The same measure, in the same setting: the value for `COc1ccc2c(c1)[nH]c1c(CC(C)C)nccc12` was less than 80%; that for `CCc1ccc(-c2nc(C(=O)OC)cc3c2[nH]c2ccccc23)cc1` was greater than 80%. Take `COc1ccc(-c2nccc3c4ccccc4n(Cc4ccc(C(C)C)cc4)c23)cc1`: the Activity with SW620/AD300 is listed as greater than 80%. Besides, the “Ratio IC50” value in data set [1] was 26.3. With `COc1ccc(-c2nccc3c2[nH]c2cc(OC)ccc23)cc1`, the Activity in the data set with SW620/AD300 is recorded as 80%.

As to `CCc1nc(C(=O)OC)cc2c1[nH]c1ccccc12`, the Activity in the data set with SW620/AD300 is reported as greater than 80%. Further, in data set [1], the “Ratio IC50” value amounted to 1.3. As to `COc1ccc(-c2nccc3c2[nH]c2c(C)cccc23)cc1`, the Activity in the data set with SW620/AD300 was less than 80%.

Turning to `CCc1ccc(-c2nccc3c4ccccc4n(Cc4ccccc4C)c23)cc1`, the Activity in the data set with SW620/AD300 is on record as less than 80%. Take `COC(=O)c1cc2c([nH]c3ccccc32)c(CC(C)C)n1`: the Activity in the data set on SW620/AD300 is given as greater than 80%. The “Ratio IC50” value in data set [1] was 2.7. Consider `COc1ccc(-c2nccc3c4ccccc4n(Cc4ccccc4)c23)cc1`, for which, in the data set on SW620/AD300, the Activity is less than 80%.

For the molecule `CCn1c2ccccc2c2ccnc(CC(C)C)c21`, the Activity in the data set on SW620/AD300 was less than 80%. On the same count and under the same terms, the value for `COc1ccc(-c2nccc3c2[nH]c2ccc(OC)cc23)cc1` was less than 80%; that for `CCc1ccc(-c2nccc3c2[nH]c2ccccc23)cc1` was less than 80%. Consider `CCc1ccc(-c2nc(C(=O)OCc3ccccc3)cc3c2[nH]c2ccccc23)cc1`, for which, in the data set on SW620/AD300, the Activity was greater than 80%. As for `COc1ccc(-c2nccc3c4ccccc4n(Cc4ccc(C)cc4)c23)cc1`, in the data set on SW620/AD300, the Activity is listed as greater than 80%. In addition, in data set [1], the “Ratio IC50” value is reported as 25.6. Turning to `CCc1ccc(-c2nccc3c4ccccc4n(CC)c23)cc1`, the Activity in the data set on SW620/AD300 is less than 80%. In the case of `CCC(CC)c1nccc2c1[nH]c1ccc(OC)cc12`, the Activity with SW620/AD300 is reported as less than 80%.

For the molecule `Clc1cc(Cl)cc(-c2nccc3c2[nH]c2ccccc23)c1`, the Activity with SW620/AD300 is recorded as greater than 80%. Also, in [1], the “Ratio IC50” value worked out at 7.3. For `CCC(CC)c1nccc2c3ccccc3n(CC)c12`, the Activity in the data set on SW620/AD300 was less than 80%. As for `Oc1ccc(-c2nccc3c2[nH]c2ccccc23)cc1`, in the data set with SW620/AD300, the Activity is greater than 80%. Also, in data set [1], the “Ratio IC50” value is listed as 1.6. `CCc1ccc(-c2nccc3c4ccccc4n(Cc4ccc(C(C)C)cc4)c23)cc1`: the Activity in the data set with SW620/AD300 is recorded as less than 80%. For the molecule `Cc1nc(-c2cccc(-c3nccc4c3[nH]c3ccccc34)c2)no1`, the Activity in the data set with SW620/AD300 was greater than 80%. In addition, the “Ratio IC50” value in data set [1] came to 3.3.

These data come from ChEMBL document CHEMBL6114996, “Design, synthesis, and biological evaluation of β-carboline derivatives as ABCB1 inhibitors for reversing multidrug resistance” (Eur J Med Chem, 2025).
